From PubChem BioAssay (NCI)
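Growth conditions: 96-well plates. Treatment: test compound, 48 hours, 5 concentrations. Analysis: linear interpolation between bracketing concentrations; unreached endpoints set to highest concentration. Here, GI50 denotes the concentration required for 50% inhibition of growth. The concentration for full growth arrest is given as TGI.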

Experiments:
Assay in all cases: NCI tumour cell line growth inhibition, 48 h
HCC-2998 colon = tested on: HCC-2998 colon
HCT-15 colon = tested on: HCT-15 colon
MDA-MB-231 breast = tested on: MDA-MB-231 breast
RXF 393 renal = tested on: RXF 393 renal
LOX IMVI melanoma = tested on: LOX IMVI melanoma
SNB-75 CNS = tested on: SNB-75 CNS
U251 CNS = tested on: U251 CNS
SF-295 CNS = tested on: SF-295 CNS
IGROV1 ovarian = tested on: IGROV1 ovarian
HCT-116 colon = tested on: HCT-116 colon

| Structure (SMILES) | TGI (HCC-2998 colon) | TGI (HCT-15 colon) | TGI (MDA-MB-231 breast) | TGI (RXF 393 renal) | TGI (LOX IMVI melanoma) | TGI (SNB-75 CNS) | TGI (U251 CNS) | TGI (SF-295 CNS) | TGI (IGROV1 ovarian) | TGI (HCT-116 colon) | GI50 (HCC-2998 colon) | GI50 (HCT-15 colon) | GI50 (MDA-MB-231 breast) | GI50 (RXF 393 renal) | GI50 (LOX IMVI melanoma) | GI50 (SNB-75 CNS) | GI50 (U251 CNS) | GI50 (SF-295 CNS) | GI50 (IGROV1 ovarian) | GI50 (HCT-116 colon) |
| --- | --- | --- | --- | --- | --- | --- | --- | --- | --- | --- | --- | --- | --- | --- | --- | --- | --- | --- | --- | --- |
| COc1ccc(N2C(=O)CC(=O)N(NC(=O)C(C)Oc3ccccc3C)C2=S)cc1 (stereo unspecified) | > 100 µM | > 100 µM | > 100 µM | > 100 µM | > 100 µM | > 100 µM | > 100 µM | > 100 µM | > 100 µM | > 100 µM |  |  |  |  |  |  |  |  |  |  |
| C=C1C(=O)CC2C1CC(=O)/C(C)=C/CCC(C)(O)C2O (stereo unspecified) | 17.1 µM | 11.5 µM | 25.2 µM | 11.6 µM | 11.9 µM | 28 µM | 40.6 µM | 47.8 µM | 20.4 µM | 6.92 µM |  |  |  |  |  |  |  |  |  |  |
| Cc1nc(C)c(N2CCN([N+](=O)[O-])CC2)c(=O)[nH]1 | > 100 µM | > 100 µM | > 100 µM | > 100 µM | > 100 µM | 0.611 µM | > 100 µM | > 100 µM | > 100 µM | > 100 µM |  |  |  |  |  |  |  |  |  |  |
| O=[N+]([O-])C(=C(Nc1ccccc1)Nc1ccccc1)C(Cl)=C(Cl)Cl | 37.9 µM | 32.3 µM | 33.3 µM | 31.8 µM | 25.1 µM | 36.5 µM | 35.3 µM | 36.4 µM | 27.2 µM | 25.5 µM |  |  |  |  |  |  |  |  |  |  |
| C[n+]1c(/C=C/c2c(O)ccc3ccccc23)ccc2ccccc21 | 13.4 µM | 13.1 µM | 12.2 µM | 10.7 µM | 12.7 µM | 14.2 µM | 13.8 µM | 13.5 µM | 12.7 µM | 10.3 µM | 6.63 µM | 5.84 µM | 5.27 µM | 4.54 µM | 5.65 µM | 6.15 µM | 5.43 µM | 5.82 µM | 4.6 µM | 3.06 µM |
| O=[N+]([O-])C(=C(Nc1cccc2cccnc12)Nc1cccc2cccnc12)C(Cl)=C(Cl)Cl | > 100 µM | > 100 µM | 29.6 µM | > 100 µM | > 100 µM | > 100 µM | > 100 µM | > 100 µM | > 100 µM | > 100 µM |  |  |  |  |  |  |  |  |  |  |
| C=C(C(=O)OCC)C(=O)OCC | > 100 µM | > 100 µM | > 100 µM | > 100 µM | > 100 µM | > 100 µM | > 100 µM | > 100 µM | > 100 µM | > 100 µM |  |  |  |  |  |  |  |  |  |  |
| O=C1CC2(CCC(O)(c3ccc4ccccc4c3)C(C(=O)c3ccc4ccccc4c3)C2)C(=O)c2ccccc2N1 (stereo unspecified) | > 100 µM |  | > 100 µM | > 100 µM | > 100 µM | > 100 µM | > 100 µM | > 100 µM | > 100 µM | > 100 µM |  |  |  |  |  |  |  |  |  |  |
| CCOc1cc(/C=C2/C(C)=NN(c3cccc(Cl)c3)/C2=N/c2nc3ccccc3s2)ccc1O | 35.6 µM | 69.8 µM | 59.6 µM | > 100 µM | > 100 µM | > 100 µM | 43 µM | 93.8 µM | > 100 µM | 67.5 µM |  |  |  |  |  |  |  |  |  |  |
| C/C(C[n+]1ccccc1)=N\N=C(N)N | > 100 µM | > 100 µM | > 100 µM | > 100 µM | > 100 µM | > 100 µM | > 100 µM | > 100 µM | > 100 µM | > 100 µM |  |  |  |  |  |  |  |  |  |  |
| CCOC(=O)c1cccc(N=Nc2nc[nH]c2/C=C/C(=O)OC)c1 | 28.2 µM | > 100 µM | > 100 µM | > 100 µM | > 100 µM | 58.7 µM | > 100 µM | > 100 µM | > 100 µM | > 100 µM |  |  |  |  |  |  |  |  |  |  |
| Cc1c2cc[n+](C)c(C)c2cc2c1[nH]c1ccccc12 | 32.2 µM | > 100 µM | > 36.3 µM | > 100 µM | > 92.2 µM | 6.98 µM | 8.41 µM | 32.3 µM | > 100 µM | > 86.1 µM |  |  |  |  |  |  |  |  |  |  |
| CCNC(=S)NNC(=O)C12CC3CC(CC(C3)C1)C2 | > 100 µM | > 100 µM | > 100 µM | > 100 µM | > 100 µM | > 100 µM | > 100 µM | > 100 µM | > 100 µM | > 100 µM |  |  |  |  |  |  |  |  |  |  |
| C[C@H](CCC(=O)O)[C@H]1CC[C@H]2[C@@H]3C(=O)C[C@@H]4C[C@H](O)CC[C@]4(C)[C@H]3C[C@H](O)[C@]12C | > 100 µM | > 100 µM | > 100 µM | > 100 µM | > 100 µM | > 100 µM | > 100 µM |  | > 100 µM | > 100 µM |  |  |  |  |  |  |  |  |  |  |
| O=C(O)CCNc1ncnc2nc[nH]c12 | > 100 µM | > 100 µM | > 100 µM | > 100 µM | > 100 µM | > 100 µM | > 100 µM | > 100 µM | > 100 µM | > 100 µM |  |  |  |  |  |  |  |  |  |  |
| CC1(C)[C@@H]2CC[C@@]1(C)CN(CCC[N+](C)(C)C)C2 | > 100 µM | > 100 µM | > 100 µM | > 100 µM | > 100 µM | > 100 µM | > 100 µM | > 100 µM | > 100 µM | > 100 µM |  |  |  |  |  |  |  |  |  |  |
| COc1cc2c(cc1OC)C1C3CCCCC3CCN1CC2 (stereo unspecified) | > 100 µM | > 100 µM | > 100 µM | > 100 µM | > 100 µM | > 100 µM | > 100 µM | > 100 µM | > 100 µM | > 100 µM |  |  |  |  |  |  |  |  |  |  |
| O=C1NC(N2CCOCC2)=N/C1=C\c1ccco1 | > 100 µM | > 100 µM | > 100 µM | > 100 µM | > 100 µM | > 100 µM | > 100 µM | > 100 µM | > 100 µM | > 100 µM |  |  |  |  |  |  |  |  |  |  |
| O=C(/C=C/c1ccccc1)Oc1ccc(C(=O)/C=C/c2ccccc2)cc1 | 15.3 µM | 17.3 µM | 23 µM | > 60.6 µM | 17.7 µM | 19.8 µM |  | 24.4 µM | 17.9 µM | 14.6 µM |  |  |  |  |  |  |  |  |  |  |
| C=CCn1c(=O)c(C(=O)Nc2nc(C34CC5CC(CC(C5)C3)C4)cs2)c(O)c2ccccc21 | > 100 µM | > 100 µM | > 100 µM | > 100 µM | > 100 µM | > 100 µM | > 100 µM | 40.7 µM | > 100 µM | > 100 µM |  |  |  |  |  |  |  |  |  |  |
| Clc1ccc(-c2nnc3sc4nc5ccccc5c-4nn23)c(Cl)c1 | > 100 µM | > 100 µM | > 100 µM | > 100 µM | > 100 µM | > 100 µM | > 100 µM | > 100 µM |  | > 100 µM |  |  |  |  |  |  |  |  |  |  |
